This is an account of results in ChEMBL document CHEMBL4190315, “Novel cinnamamide-dibenzylamine hybrids: Potent neurogenic agents with antioxidant, cholinergic, and neuroprotective properties as innovative drugs for Alzheimer's disease” (Eur J Med Chem, 2017).

Activity calls are given as the source filed them. The rule behind the calls is not given here.

Data set [1] has as its target Amyloid-beta precursor protein (Homo sapiens) (UniProt P05067). Briefly: Inhibition of HFIP pretreated amyloid beta (1 to 42) (unknown origin) self-aggregation at 20 uM after 48 hrs by thioflavin T fluorescence assay relative to control.
Data set [2] is described as follows: Effective permeability of compound at 50 ug/mL after 16 hrs by PAMPA-BBB assay.
Data set [3] concerns the target Cholinesterase (Equus caballus, UniProt P81908). Briefly: Inhibition of equine serum BChE using S-butyrylthiocholine iodide as substrate preincubated for 5 mins followed by substrate addition measured up to 180 secs by spectrophotometric analysis.
The nature of data set [4]: Metal chelating activity assessed as mole fraction of compound required to show 1:2 stoichiometry for Cu2+-compound complex at 25 uM after 30 mins by Job's plot analysis.
Data set [5] in a line: Metal chelating activity assessed as Fe2+-compound complex formation at 25 uM after 30 mins by UV-vis spectrophotometric method.
In data set [6] the target is T1, Acetylcholinesterase (Homo sapiens, UniProt P22303). Briefly: Inhibition of human erythrocytic AChE using acetylthiocholine iodide as substrate preincubated for 5 mins followed by substrate addition measured up to 180 secs by spectrophotometric analysis.
Data set [7] relates to Mus musculus. Briefly: Reversal of scopolamine-induced memory impairment in Kunming mouse assessed as increase in step-down latency time at 5 to 15 mg/kg, po administered 60 mins prior to training trial followed by scopolamine challenge at 30 mins post dose measured 24 hrs after training trial by passive avoidance test. The class given is functional, organism-based.
Data set [8] can be described thus: Copper-chelating activity assessed as minimum absorption at 25 uM after 30 mins by UV-vis spectrophotometric method (reference value: 260 nanometer).
The subject of data set [9] is Mus musculus. Briefly: Reversal of scopolamine-induced memory impairment in Kunming mouse assessed as increase in step-down latency time at 5 mg/kg, po administered 60 mins prior to training trial followed by scopolamine challenge at 30 mins post dose measured 24 hrs after training trial by passive avoidance test. It counts as functional, organism-based.
For data set [10], the system named is PC-12. Briefly: Cytotoxicity against rat PC12 cells at 1.25 to 50 uM after 24 hrs by MTT assay. It counts as cell-based. As to conditions: pc-12, 24 h.
Data set [11] is described as follows: Inhibition of Cu2+-mediated aggregation of amyloid beta (1 to 42) (unknown origin) assessed as reduction in fibril formation at 50 uM after 24 hrs by transmission electron microscopic analysis.
Data set [12] has as its target Cholinesterase (Homo sapiens, UniProt P06276). Briefly: Inhibition of human serum BChE using S-butyrylthiocholine iodide as substrate preincubated for 5 mins followed by substrate addition measured up to 180 secs by spectrophotometric analysis.
Data set [13] can be described thus: Antioxidant activity assessed as inhibition of AAPH-induced peroxyl radical generation measured as trolox equivalent preincubated for 15 mins followed by AAPH addition measured every min for 120 mins by ORAC-FL assay. It counts as functional.
The nature of data set [14]: Selectivity index, ratio of IC50 for equine serum BChE to IC50 for electric eel AChE.
For data set [15], the target named is Acetylcholinesterase (Electrophorus electricus, UniProt O42275). Briefly: Inhibition of electric eel AChE using acetylthiocholine iodide as substrate preincubated for 5 mins followed by substrate addition measured up to 180 secs by spectrophotometric analysis.
Data set [16] can be described thus: Copper-chelating activity assessed as red shift by measuring maximum absorption at 25 uM after 30 mins by UV-vis spectrophotometric method (reference value: 230 nanometer).
Data set [17] is described as follows: Metal chelating activity assessed as Zn2+-compound complex formation at 25 uM after 30 mins by UV-vis spectrophotometric method.
A short description of data set [18]: Inhibition of Cu2+-mediated aggregation of amyloid beta (1 to 42) (unknown origin) at 50 uM after 24 hrs by thioflavin T fluorescence assay relative to control.
Data set [19] addresses T1, Acetylcholinesterase. Briefly: Mixed-type inhibition of AChE (unknown origin) at 2.25 to 9 uM using acetylthiocholine iodide as substrate preincubated for 5 mins followed by substrate addition measured up to 180 secs by Lineweaver-Burk plot analysis.
A short description of data set [20]: Metal chelating activity assessed as Fe3+-compound complex formation at 25 uM after 30 mins by UV-vis spectrophotometric method.
In data set [21] the test system is PC-12. Briefly: Neuroprotective activity against H2O2-induced oxidative damage in rat PC12 cells assessed as increase in cell viability at 1.25 to 25 uM preincubated for 2 hrs followed by H2O2 challenge measured after 24 hrs by MTT assay. The class given is functional, cell-based.

T1 sequence (P22303 whole entry): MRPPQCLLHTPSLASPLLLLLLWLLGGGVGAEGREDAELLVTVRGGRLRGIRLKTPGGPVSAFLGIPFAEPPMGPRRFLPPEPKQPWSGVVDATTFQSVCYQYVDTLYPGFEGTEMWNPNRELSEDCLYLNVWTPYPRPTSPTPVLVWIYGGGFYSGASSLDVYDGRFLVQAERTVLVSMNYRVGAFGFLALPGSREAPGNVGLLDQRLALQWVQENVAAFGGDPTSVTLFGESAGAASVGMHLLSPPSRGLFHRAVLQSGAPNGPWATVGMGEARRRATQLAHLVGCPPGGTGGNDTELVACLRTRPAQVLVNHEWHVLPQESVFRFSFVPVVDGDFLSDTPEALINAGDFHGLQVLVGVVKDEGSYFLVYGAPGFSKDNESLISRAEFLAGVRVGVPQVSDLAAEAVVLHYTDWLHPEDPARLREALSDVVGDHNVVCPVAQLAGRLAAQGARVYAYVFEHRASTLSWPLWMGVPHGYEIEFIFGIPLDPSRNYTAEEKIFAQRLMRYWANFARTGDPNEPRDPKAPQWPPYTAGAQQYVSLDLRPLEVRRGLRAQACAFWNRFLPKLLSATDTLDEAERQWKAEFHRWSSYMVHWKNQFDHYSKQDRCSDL
Chain of Acetylcholinesterase (Electrophorus electricus, UniProt O42275) (O42275 whole entry): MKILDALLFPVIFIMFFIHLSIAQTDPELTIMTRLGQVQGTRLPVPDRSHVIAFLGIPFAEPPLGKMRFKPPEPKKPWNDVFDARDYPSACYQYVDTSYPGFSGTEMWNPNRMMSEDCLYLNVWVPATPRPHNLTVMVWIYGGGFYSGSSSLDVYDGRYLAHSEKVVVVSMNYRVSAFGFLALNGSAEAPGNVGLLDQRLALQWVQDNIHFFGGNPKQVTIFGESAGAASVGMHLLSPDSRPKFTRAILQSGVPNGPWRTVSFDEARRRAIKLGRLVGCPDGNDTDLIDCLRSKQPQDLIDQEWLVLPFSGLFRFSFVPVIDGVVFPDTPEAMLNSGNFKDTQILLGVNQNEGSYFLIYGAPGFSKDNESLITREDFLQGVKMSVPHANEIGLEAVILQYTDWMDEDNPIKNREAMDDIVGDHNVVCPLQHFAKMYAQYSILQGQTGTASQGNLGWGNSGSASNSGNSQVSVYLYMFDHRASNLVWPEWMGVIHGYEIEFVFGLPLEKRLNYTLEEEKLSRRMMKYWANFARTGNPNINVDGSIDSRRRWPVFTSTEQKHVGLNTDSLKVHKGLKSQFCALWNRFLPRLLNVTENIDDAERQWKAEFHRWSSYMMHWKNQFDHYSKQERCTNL
Chain of Cholinesterase (Equus caballus, UniProt P81908) (P81908 whole entry): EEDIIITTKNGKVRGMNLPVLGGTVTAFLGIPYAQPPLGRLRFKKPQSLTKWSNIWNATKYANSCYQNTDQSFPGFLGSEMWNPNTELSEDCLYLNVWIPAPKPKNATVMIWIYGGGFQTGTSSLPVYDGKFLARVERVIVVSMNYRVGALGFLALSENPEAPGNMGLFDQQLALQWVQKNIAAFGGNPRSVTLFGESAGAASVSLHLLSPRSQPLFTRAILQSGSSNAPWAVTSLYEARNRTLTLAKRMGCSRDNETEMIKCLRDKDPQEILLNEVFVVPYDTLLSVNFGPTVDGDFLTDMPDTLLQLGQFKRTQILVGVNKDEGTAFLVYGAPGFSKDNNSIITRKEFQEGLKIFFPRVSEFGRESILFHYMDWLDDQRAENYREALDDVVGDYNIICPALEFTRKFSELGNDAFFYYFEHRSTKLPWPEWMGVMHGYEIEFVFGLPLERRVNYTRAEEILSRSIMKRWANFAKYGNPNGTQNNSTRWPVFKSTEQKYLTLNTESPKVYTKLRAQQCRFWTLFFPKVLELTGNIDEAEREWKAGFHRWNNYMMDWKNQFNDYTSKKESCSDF
Chain of Amyloid-beta precursor protein (Homo sapiens) (P05067 whole entry): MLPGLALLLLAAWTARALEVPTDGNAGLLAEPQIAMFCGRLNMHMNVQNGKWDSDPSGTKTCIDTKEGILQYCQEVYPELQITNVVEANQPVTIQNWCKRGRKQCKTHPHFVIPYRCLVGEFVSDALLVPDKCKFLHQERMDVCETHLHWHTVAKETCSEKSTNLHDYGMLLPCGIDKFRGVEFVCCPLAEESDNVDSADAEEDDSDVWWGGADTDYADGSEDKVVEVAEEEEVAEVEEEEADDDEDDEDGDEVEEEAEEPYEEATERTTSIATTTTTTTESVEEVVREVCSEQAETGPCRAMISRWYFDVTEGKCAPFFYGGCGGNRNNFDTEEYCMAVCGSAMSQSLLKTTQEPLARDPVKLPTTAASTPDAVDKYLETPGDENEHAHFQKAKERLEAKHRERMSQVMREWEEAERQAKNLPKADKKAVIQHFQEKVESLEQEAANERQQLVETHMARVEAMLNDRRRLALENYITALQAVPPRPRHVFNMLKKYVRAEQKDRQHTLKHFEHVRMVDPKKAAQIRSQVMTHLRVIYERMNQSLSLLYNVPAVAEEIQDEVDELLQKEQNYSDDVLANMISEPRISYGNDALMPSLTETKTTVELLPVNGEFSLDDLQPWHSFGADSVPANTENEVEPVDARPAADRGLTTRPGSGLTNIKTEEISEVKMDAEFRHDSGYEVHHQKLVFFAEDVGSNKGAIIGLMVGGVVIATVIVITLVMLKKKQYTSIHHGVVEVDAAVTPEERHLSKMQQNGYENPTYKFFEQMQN
Chain of Cholinesterase (Homo sapiens, UniProt P06276) (P06276 whole entry): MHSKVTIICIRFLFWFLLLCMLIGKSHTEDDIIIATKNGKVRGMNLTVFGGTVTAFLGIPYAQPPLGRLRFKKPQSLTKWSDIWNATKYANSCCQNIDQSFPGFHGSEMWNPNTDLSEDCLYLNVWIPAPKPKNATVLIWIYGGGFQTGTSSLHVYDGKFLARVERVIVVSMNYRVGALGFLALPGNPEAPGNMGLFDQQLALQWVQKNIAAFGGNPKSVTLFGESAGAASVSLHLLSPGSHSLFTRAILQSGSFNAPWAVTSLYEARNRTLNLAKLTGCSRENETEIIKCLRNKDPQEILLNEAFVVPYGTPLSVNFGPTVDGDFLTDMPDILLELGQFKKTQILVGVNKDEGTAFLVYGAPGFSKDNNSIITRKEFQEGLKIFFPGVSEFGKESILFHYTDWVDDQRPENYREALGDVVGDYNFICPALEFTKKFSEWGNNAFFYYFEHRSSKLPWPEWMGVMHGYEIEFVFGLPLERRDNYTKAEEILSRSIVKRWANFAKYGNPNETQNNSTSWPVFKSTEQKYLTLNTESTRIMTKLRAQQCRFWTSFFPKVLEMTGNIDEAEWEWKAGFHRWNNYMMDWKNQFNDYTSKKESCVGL

Take `CN(Cc1ccccc1)Cc1ccc(NC(=O)/C=C/c2ccc(O)c(O)c2)cc1`: the inhibition is 56.2% in data set [1] and 87.4% in data set [18]. The compound also returned a Papp at 16 h, 50 ug/mL in [2] of 5.34 ×10⁻⁶ cm/s. The IC50 is 9.72 µM in [3], 5.42 µM in data set [6], 8.01 µM in data set [12] and 4.64 µM in data set [15]. For the same compound, the Activity (mole fraction) in data set [4] was 0.67. In addition, the result in data set [5] was inactive. Also, the outcome in data set [7], in [9], in data set [17], in data set [20] and in data set [21] was Active. Moreover, the Activity is 274 nm in [8], “Non-Toxic” in data set [10], 4.24 equiv in data set [13] and 245 nm in [16]. Further, the inhibition result in [11] and in [19] was “Active” in each case. Moreover, the Ratio IC50 in data set [14] is 2.1.
